From patent US20240217989A1, “Heteroaryl Fluoroalkenes As DGK Inhibitors” (Incyte Corporation, priority 2022, published 2024)

Legend:
DGKζ = DGKζ (Homo sapiens, UniProt Q13574); test: In vitro DGKζ inhibition assay (ADP-Glo); assay type: biochemical; settings: His-tagged human recombinant enzyme; 0.4 nM DGKζ, 30 μM ATP, 20 μM DLG; 90 minute incubation; ADP-Glo luminescence
Experimental: (§1) The DGKα and DGKζ biochemical reactions were performed using His-tagged human recombinant enzymes (Signal Chem, DGKα, #D21-10BH; DGKζ, #D30-10H)) and DLG (Dilauroyl-sn-glycerol) lipid substrate (Signal Chem, #D430-59). ADP-Glo assay was performed using ADP-Glo™ kinase Assay kit (Promega, #V9104). The reactions were carried out in assay buffer containing 40 mM Tris, pH 7.5, 0.1% CHAPS, 0.1% Prionex, 40 mM NaCl, 5 mM MgCl2, 1 mM CaCl2, and 1 mM DTT. DGKα reactions contained 0.1 nM DGKα, 50 μM ATP, and 20 μM DLG. And DGKζ reactions contained 0.4 nM DGKζ, 30 μM ATP, and 20 μM DLG. For compound inhibition studies, 40 nL test compound in DMSO was added to wells of white polystyrene plates in 384-well (Greiner, #784075) or 1536-well format (Greiner, #782075). Compounds were added with top concentration of 2 mM with 11 point, 3-fold dilution series. Enzyme solution (contains 2× DGK enzyme concentration in 1× assay buffer) was added to the plate in 2 μL/well volume, followed by 2 μL/well of substrate solution (contains 2× concentration of ATP and DLG substrate in 1× assay buffer). Plates were then centrifuged for 1 min at 1200 RPM and sealed or lidded. For 4 μL reaction volume, test compounds were therefore diluted 100× to final top concentration of 20 μM. After 90 minute incubation, reactions were quenched by addition of 2 μL/well Promega ADP-Glo Reagent, followed by centrifugation and lidding. After 60 min incubation, 2 μL/well Promega Kinase Detection Reagent was added, plates centrifuged, and incubated for 30 min. Plates were then read using Luminescence method on BMG PHERAstar FSX plate reader. Percent inhibition was calculated and IC50s were determined using 4-parameter fit in Genedata Screener. Labcyte Echo acoustic dispenser was used for compound addition, and Formulatrix Tempest liquid handler was used for all reagent dispenses.

DGKα = biological target: T1, DGKα (Homo sapiens, UniProt P23743); test: In vitro DGKα inhibition assay (ADP-Glo); assay type: biochemical; settings: His-tagged human recombinant enzyme; 0.1 nM DGKα, 50 μM ATP, 20 μM DLG; 90 minute incubation; ADP-Glo luminescence
T1 construct: His; purchased Signal Chem D21-10BH
T1 sequence (P23743 whole entry): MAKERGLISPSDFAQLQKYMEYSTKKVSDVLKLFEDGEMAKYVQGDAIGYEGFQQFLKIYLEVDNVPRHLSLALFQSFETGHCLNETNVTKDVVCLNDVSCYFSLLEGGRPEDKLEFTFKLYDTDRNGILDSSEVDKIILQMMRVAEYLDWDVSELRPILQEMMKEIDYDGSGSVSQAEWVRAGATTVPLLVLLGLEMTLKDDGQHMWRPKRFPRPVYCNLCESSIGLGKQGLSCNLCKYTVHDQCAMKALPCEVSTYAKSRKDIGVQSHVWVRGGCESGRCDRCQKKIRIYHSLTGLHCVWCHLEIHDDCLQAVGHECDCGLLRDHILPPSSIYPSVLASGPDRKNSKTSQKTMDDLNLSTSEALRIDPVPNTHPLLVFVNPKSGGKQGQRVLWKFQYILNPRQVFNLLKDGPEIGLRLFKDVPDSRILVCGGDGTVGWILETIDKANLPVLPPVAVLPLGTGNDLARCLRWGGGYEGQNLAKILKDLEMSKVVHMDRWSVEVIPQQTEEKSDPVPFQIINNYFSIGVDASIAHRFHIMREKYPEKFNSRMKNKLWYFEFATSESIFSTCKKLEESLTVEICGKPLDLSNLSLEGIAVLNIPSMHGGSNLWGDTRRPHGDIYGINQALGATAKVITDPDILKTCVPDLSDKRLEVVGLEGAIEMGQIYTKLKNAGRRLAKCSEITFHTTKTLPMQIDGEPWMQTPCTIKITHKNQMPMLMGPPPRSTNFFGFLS
Experimental: as §1

Sequence of DGKζ (Q13574 whole entry): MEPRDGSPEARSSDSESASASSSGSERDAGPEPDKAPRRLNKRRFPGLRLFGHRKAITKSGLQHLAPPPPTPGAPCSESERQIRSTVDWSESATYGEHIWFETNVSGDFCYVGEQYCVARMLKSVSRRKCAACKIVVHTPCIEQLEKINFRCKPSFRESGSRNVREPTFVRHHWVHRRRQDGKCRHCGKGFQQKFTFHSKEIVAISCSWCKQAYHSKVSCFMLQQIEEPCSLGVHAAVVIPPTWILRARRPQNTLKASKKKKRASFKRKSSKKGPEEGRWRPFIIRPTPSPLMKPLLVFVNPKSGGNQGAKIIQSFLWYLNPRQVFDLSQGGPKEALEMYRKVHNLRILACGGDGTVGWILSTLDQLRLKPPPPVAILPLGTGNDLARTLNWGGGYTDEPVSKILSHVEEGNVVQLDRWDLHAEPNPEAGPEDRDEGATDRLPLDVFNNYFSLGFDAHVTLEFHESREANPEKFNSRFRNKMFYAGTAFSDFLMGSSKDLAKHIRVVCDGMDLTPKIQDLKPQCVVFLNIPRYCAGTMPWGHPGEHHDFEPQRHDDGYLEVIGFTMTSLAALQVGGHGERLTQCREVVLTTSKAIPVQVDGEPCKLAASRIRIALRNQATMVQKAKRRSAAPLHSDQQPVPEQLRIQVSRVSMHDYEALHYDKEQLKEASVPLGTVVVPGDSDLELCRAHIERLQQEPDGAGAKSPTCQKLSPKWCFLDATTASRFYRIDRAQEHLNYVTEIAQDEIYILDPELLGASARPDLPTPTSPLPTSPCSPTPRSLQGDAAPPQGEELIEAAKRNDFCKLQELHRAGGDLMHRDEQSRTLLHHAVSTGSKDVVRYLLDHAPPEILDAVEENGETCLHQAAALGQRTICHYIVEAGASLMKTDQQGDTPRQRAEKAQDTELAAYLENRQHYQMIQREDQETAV

Row | IC50 (DGKζ) [nM] | IC50 (DGKα) [nM] | Compound
1 | 20 to 200 | 20 to 200 | NC[C@@H]1CCCN(c2c(/C=C(\F)c3cc4nccnc4c(N4CC(F)(F)C4)n3)ccc(Oc3ccccc3F)c2C(F)(F)F)C1 [Example 1, (S,Z)-(1-(6-(2-(5-(3,3-Difluoroazetidin-1-yl)pyrido[3,4-b]pyrazin-7-yl)-2-fluorovinyl)-3-(2-fluorophenoxy)-2-(trifluoromethyl)phenyl)piperidin-3-yl)methanamine]
2 | ≤ 20 | 20 to 200 | F/C(=C\c1ccc(Oc2ccccc2F)c(C(F)(F)F)c1N1CCOC2(CCN(CC3CC3)CC2)C1)c1cncc(-c2ccnnc2)n1 [Example 36, (Z)-9-(Cyclopropylmethyl)-4-(6-(2-fluoro-2-(6-(pyridazin-4-yl)pyrazin-2-yl)vinyl)-3-(2-fluorophenoxy)-2-(trifluoromethyl)phenyl)-1-oxa-4,9-diazaspiro[5.5]undecane]
3 | ≤ 20 | ≤ 20 | COc1cc(F)ccc1Oc1ccc(/C=C(\F)c2ccnc(-c3ccnnc3)n2)c(N2CCC[C@@H](CN)C2)c1Cl [Example 7, (S,Z)-(1-(2-Chloro-6-(2-fluoro-2-(2-(pyridazin-4-yl)pyrimidin-4-yl)vinyl)-3-(4-fluoro-2-methoxyphenoxy)phenyl)piperidin-3-yl)methanamine]
4 | ≤ 20 | ≤ 20 | N#Cc1ncc(N2CC(F)(F)C2)nc1/C(F)=C/c1ccc(Oc2ccccc2F)c(C(F)(F)F)c1N1CCC[C@@H](CN)C1 [Example 3, (S,Z)-3-(2-(2-(3-(Aminomethyl)piperidin-1-yl)-4-(2-fluorophenoxy)-3-(trifluoromethyl)phenyl)-1-fluorovinyl)-5-(3,3-difluoroazetidin-1-yl)pyrazine-2-carbonitrile]
5 | ≤ 20 | ≤ 20 | NC[C@H]1CCCN1c1c(/C=C(\F)c2nccc(-c3ccnnc3)n2)ccc(Oc2ccccc2)c1Cl [Example 13, (R,Z)-(1-(2-Chloro-6-(2-fluoro-2-(4-(pyridazin-4-yl)pyrimidin-2-yl)vinyl)-3-phenoxyphenyl)pyrrolidin-2-yl)methanamine]
6 | ≤ 20 | ≤ 20 | CCN1CCC2(CC1)CN(c1c(/C=C(\F)c3cncc(-c4ccnnc4)n3)ccc(Oc3ccccc3F)c1C(F)(F)F)CCO2 [Example 35, (Z)-9-Ethyl-4-(6-(2-fluoro-2-(6-(pyridazin-4-yl)pyrazin-2-yl)vinyl)-3-(2-fluorophenoxy)-2-(trifluoromethyl)phenyl)-1-oxa-4,9-diazaspiro[5.5]undecane]
7 | ≤ 20 | ≤ 20 | CCN1CCC2(CC1)CN(c1c(/C=C(\F)c3nccc(-c4ccnnc4)n3)ccc(Oc3ccccc3F)c1C(F)(F)F)CCO2 [Example 41, (Z)-9-Ethyl-4-(6-(2-fluoro-2-(4-(pyridazin-4-yl)pyrimidin-2-yl)vinyl)-3-(2-fluorophenoxy)-2-(trifluoromethyl)phenyl)-1-oxa-4,9-diazaspiro[5.5]undecane]
8 | ≤ 20 | ≤ 20 | CCN1CCC2(CCCN(c3c(/C=C(\F)c4nccc(-c5ccnnc5)n4)ccc(OC4CC5CC(C5)C4)c3C(F)(F)F)C2)CC1 (stereo not shown) [Example 54, (Z)-2-(3-(Bicyclo[3.1.1]heptan-3-yloxy)-6-(2-fluoro-2-(4-(pyridazin-4-yl)pyrimidin-2-yl)vinyl)-2-(trifluoromethyl)phenyl)-9-ethyl-2,9-diazaspiro[5.5]undecane]
9 | ≤ 20 | ≤ 20 | CCN1CCC2(CCCN(c3c(/C=C(\F)c4cncc(N5CCC(F)(F)C5)n4)ccc(Oc4ccccc4)c3C(F)(F)F)C2)CC1 [Example 20, (Z)-2-(6-(2-(6-(3,3-Difluoropyrrolidin-1-yl)pyrazin-2-yl)-2-fluorovinyl)-3-phenoxy-2-(trifluoromethyl)phenyl)-9-ethyl-2,9-diazaspiro[5.5]undecane]
10 | ≤ 20 | ≤ 20 | F/C(=C\c1ccc(Oc2ccccc2F)c(C(F)(F)F)c1N1CCCC2(CCN(CC3CC3)CC2)C1)c1cncc(-c2ccnnc2)n1 [Example 37, (Z)-9-(Cyclopropylmethyl)-2-(6-(2-fluoro-2-(6-(pyridazin-4-yl)pyrazin-2-yl)vinyl)-3-(2-fluorophenoxy)-2-(trifluoromethyl)phenyl)-2,9-diazaspiro[5.5]undecane]
11 | ≤ 20 | ≤ 20 | CCN1CCC2(CCCN(c3c(/C=C(\F)c4nccc(-c5cnsc5)n4)ccc(Oc4ccccc4F)c3C(F)(F)F)C2)CC1 [Example 46, (Z)-4-(2-(2-(2-(9-Ethyl-2,9-diazaspiro[5.5]undecan-2-yl)-4-(2-fluorophenoxy)-3-(trifluoromethyl)phenyl)-1-fluorovinyl)pyrimidin-4-yl)isothiazole]
12 | ≤ 20 | ≤ 20 | F/C(=C\c1ccc(Oc2ccccc2)c(C(F)(F)F)c1N1CCCC2(CCN(CC3CC3)CC2)C1)c1cncc(N2CCC(F)(F)C2)n1 [Example 19, (Z)-9-(Cyclopropylmethyl)-2-(6-(2-(6-(3,3-difluoropyrrolidin-1-yl)pyrazin-2-yl)-2-fluorovinyl)-3-phenoxy-2-(trifluoromethyl)phenyl)-2,9-diazaspiro[5.5]undecane]
13 | ≤ 20 | ≤ 20 | F/C(=C\c1ccc(Oc2ccccc2)c(C(F)(F)F)c1N1CCOC2(CCN(CC3CC3)CC2)C1)c1cncc(-c2ccnnc2)n1 [Example 10, (Z)-9-(Cyclopropylmethyl)-4-(6-(2-fluoro-2-(6-(pyridazin-4-yl)pyrazin-2-yl)vinyl)-3-phenoxy-2-(trifluoromethyl)phenyl)-1-oxa-4,9-diazaspiro[5.5]undecane]
14 | ≤ 20 | ≤ 20 | F/C(=C\c1ccc(Oc2ccccc2)c(C(F)(F)F)c1N1CCOC2(CCN(CC3CC3)CC2)C1)c1cccc(-c2ccnnc2)n1 [Example 27, (Z)-9-(Cyclopropylmethyl)-4-(6-(2-fluoro-2-(6-(pyridazin-4-yl)pyridin-2-yl)vinyl)-3-phenoxy-2-(trifluoromethyl)phenyl)-1-oxa-4,9-diazaspiro[5.5]undecane]
15 | ≤ 20 | ≤ 20 | COc1cc(F)ccc1Oc1ccc(/C=C(\F)c2nncc(N3CCC(F)(F)C3)n2)c(N2CCC[C@@H](CN)C2)c1Cl [Example 8, (S,Z)-(1-(2-Chloro-6-(2-(5-(3,3-difluoropyrrolidin-1-yl)-1,2,4-triazin-3-yl)-2-fluorovinyl)-3-(4-fluoro-2-methoxyphenoxy)phenyl)piperidin-3-yl)methanamine]
16 | ≤ 20 | ≤ 20 | F/C(=C\c1ccc(OC2CCCCC2)c(C(F)(F)F)c1N1CCCC2(CCN(CC3CC3)CC2)C1)c1nccc(-c2ccnnc2)n1 [Example 50, (Z)-2-(3-(Cyclohexyloxy)-6-(2-fluoro-2-(4-(pyridazin-4-yl)pyrimidin-2-yl)vinyl)-2-(trifluoromethyl)phenyl)-9-(cyclopropylmethyl)-2,9-diazaspiro[5.5]undecane]
17 | ≤ 20 | 20 to 200 | COCCN1CCC2(CC1)CN(c1c(/C=C(\F)c3cncc(-c4ccnnc4)n3)ccc(Oc3ccccc3)c1C(F)(F)F)CCO2 [Example 11, (Z)-4-(6-(2-Fluoro-2-(6-(pyridazin-4-yl)pyrazin-2-yl)vinyl)-3-phenoxy-2-(trifluoromethyl)phenyl)-9-(2-methoxyethyl)-1-oxa-4,9-diazaspiro[5.5]undecane]
18 | ≤ 20 | ≤ 20 | F/C(=C\c1ccc(Oc2ccccc2F)c(C(F)(F)F)c1N1CCCC2(CCN(CC3CC3)CC2)C1)c1cncc(-c2cnsc2)n1 [Example 56, (Z)-4-(6-(2-(2-(9-(Cyclopropylmethyl)-2,9-diazaspiro[5.5]undecan-2-yl)-4-(2-fluorophenoxy)-3-(trifluoromethyl)phenyl)-1-fluorovinyl)pyrazin-2-yl)isothiazole]
19 | 20 to 200 | ≤ 20 | CN(CCCN)c1c(/C=C(\F)c2cccc(-c3ccnnc3)n2)ccc(Oc2ccccc2)c1C(F)(F)F [Example 5, (Z)-N1-(6-(2-Fluoro-2-(6-(pyridazin-4-yl)pyridin-2-yl)vinyl)-3-phenoxy-2-(trifluoromethyl)phenyl)-N1-methylpropane-1,3-diamine]

Row | Compound | IC50 (DGKζ) [nM] | IC50 (DGKα) [nM]
20 | F/C(=C\c1ccc(OC2CCC2)c(C(F)(F)F)c1N1CCCC2(CCN(CC3CC3)CC2)C1)c1nccc(-c2ccnnc2)n1 [Example 52, (Z)-2-(3-Cyclobutoxy-6-(2-fluoro-2-(4-(pyridazin-4-yl)pyrimidin-2-yl)vinyl)-2-(trifluoromethyl)phenyl)-9-(cyclopropylmethyl)-2,9-diazaspiro[5.5]undecane] | ≤ 20 | ≤ 20
